Experimental findings from patent publication US11713338B2, “Cyclic peptides multimers targeting α-4-β-7 integrin” (priority 2016, dated 2023) are described below.

For assay [1], the target named is T1, recombinant integrin α4β7 (Homo sapiens, UniProt P13612+P26010, DEL724-798).
T1 construct: purchased R&D Systems 5397-A3-050
T1 sequence (P13612 34-970 limits assumed): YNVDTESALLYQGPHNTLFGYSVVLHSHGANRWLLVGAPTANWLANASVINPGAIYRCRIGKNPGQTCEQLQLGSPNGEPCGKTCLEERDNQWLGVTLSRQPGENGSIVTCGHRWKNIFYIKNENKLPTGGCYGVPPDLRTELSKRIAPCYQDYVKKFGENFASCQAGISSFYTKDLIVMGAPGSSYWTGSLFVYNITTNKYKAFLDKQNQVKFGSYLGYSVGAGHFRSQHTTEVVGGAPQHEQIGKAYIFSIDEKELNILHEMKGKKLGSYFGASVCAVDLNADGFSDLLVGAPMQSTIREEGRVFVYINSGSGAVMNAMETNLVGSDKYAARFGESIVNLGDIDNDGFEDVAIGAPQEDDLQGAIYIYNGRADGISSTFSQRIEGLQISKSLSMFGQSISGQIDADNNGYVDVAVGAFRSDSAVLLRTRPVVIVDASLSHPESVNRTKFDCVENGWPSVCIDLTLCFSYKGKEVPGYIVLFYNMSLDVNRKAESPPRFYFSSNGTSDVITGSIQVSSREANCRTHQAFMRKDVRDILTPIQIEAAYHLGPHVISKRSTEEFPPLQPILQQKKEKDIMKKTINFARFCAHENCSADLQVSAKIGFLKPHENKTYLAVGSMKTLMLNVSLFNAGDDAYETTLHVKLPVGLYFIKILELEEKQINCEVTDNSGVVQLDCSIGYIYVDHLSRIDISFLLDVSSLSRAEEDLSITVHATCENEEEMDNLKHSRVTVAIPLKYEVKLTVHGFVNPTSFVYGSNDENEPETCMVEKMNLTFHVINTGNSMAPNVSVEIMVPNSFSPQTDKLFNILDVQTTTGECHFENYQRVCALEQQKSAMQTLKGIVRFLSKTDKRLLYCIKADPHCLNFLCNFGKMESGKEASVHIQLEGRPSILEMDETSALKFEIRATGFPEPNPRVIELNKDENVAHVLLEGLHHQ
T1 sequence (P26010 20-723 limits assumed): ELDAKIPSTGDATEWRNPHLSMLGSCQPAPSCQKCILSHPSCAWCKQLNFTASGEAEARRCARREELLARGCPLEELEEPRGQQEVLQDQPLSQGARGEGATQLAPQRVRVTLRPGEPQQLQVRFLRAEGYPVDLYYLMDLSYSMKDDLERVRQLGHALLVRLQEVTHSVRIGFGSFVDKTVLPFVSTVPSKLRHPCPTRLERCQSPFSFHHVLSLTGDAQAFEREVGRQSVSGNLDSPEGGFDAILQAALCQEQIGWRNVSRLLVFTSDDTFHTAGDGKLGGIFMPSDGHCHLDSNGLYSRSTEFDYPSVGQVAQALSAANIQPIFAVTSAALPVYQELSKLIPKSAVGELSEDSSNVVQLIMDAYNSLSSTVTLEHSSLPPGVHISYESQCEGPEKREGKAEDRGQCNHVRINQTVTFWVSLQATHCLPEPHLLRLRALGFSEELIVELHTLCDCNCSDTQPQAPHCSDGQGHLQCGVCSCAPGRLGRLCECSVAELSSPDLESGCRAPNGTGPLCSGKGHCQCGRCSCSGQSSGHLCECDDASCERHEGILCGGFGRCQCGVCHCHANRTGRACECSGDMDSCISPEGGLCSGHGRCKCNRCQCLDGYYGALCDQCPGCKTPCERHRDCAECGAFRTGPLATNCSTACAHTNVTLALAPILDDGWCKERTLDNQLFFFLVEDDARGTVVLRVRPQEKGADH
The experiment in a line: Integrin α4β7—MAdCAM-1 ELISA competition assay. As to conditions: for ELISA Assay Ratio b1/b7: ratio of a4b1 to a4b7 ELISA IC50; for IC50: read-out: ELISA a4b7 Assay IC50. Type of assay: binding.

The target in assay [2] is T2, recombinant integrin α4β1 (Homo sapiens, UniProt P05556+P13612).
T2 construct: purchased R&D Systems 5397-A3-050
Description: Integrin α4β1—VCAM-1 competition ELISA. Type of assay: binding. The conditions noted are these: read-out: ELISA a4b1 Assay IC50. Here is the method:
Integrin α4β1—VCAM-1 Competition ELISA
The plate was incubated at 4° C. overnight. […] The plate was then incubated for 1 hour at room temperature. The plate was washed three times with wash buffer (50 mM Tris, 100 mM NaCl, 1 mM MnCl2, 0.05% Tween). To each well, 50 μl of compound diluted in assay buffer was added by transfer from a compound serial dilution plate. […] The plate was incubated at room temperature with shaking (300 rpm) for 2 hours to reach binding equilibrium. Then the plate was washed three times in wash buffer and 100 μl anti-human IgG Fc specific-HRP (Abcam, Ab97225) diluted at 1:2000 in assay buffer was added to each well. The plate was incubated at room temperature for 1 hour under agitation.
(An ELISA detects its analyte on a solid surface through an enzyme-linked reagent.)

T2 sequence (P05556 21-728 limits assumed, one chain of several): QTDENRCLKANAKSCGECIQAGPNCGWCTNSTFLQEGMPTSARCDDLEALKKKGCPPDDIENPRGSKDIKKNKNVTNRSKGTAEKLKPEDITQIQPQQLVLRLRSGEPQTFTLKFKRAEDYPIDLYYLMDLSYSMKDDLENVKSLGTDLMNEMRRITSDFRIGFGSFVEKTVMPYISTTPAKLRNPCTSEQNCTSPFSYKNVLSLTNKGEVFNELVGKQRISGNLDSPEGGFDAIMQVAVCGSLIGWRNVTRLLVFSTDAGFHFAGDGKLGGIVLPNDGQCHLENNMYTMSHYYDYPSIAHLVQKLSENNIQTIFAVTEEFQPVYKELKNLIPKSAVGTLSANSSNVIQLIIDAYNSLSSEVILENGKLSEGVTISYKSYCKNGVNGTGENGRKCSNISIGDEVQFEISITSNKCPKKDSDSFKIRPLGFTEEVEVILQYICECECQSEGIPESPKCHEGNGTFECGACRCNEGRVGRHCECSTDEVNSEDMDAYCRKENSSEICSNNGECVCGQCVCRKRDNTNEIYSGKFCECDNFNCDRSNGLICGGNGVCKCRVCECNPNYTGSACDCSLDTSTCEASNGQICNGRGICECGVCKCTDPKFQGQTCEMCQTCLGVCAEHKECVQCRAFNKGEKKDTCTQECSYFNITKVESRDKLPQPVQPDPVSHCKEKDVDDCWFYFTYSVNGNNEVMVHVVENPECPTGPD

For orientation: IC50 means the point on the concentration scale where inhibition reaches its midpoint. `CC(C)C[C@@H]1NC(=O)[C@H](C2CCCCC2)NC(=O)[C@@H]2CCCN2[C@H](C(=O)NC(C)(C)C)[C@H](C)NC(=O)[C@H]([C@@H](C)O)NC(=O)[C@H](CC(=O)O)NC1=O` [Compound 91]: the “ELISA Assay Ratio b1/b7” value in assay [1] came to 14.5. Moreover, the results for the IC50 in assay [1] and in assay [2] were 126 nM and 1820 nM, respectively.

Take `CC(C)C[C@@H]1NC(=O)[C@H](Cc2csc(-c3ccccn3)n2)NC(=O)[C@@H]2CCCN2[C@H](C(=O)NC(C)(C)C)[C@H](C)NC(=O)[C@H]([C@@H](C)O)NC(=O)[C@H](CC(=O)O)NC1=O` [Compound 95]: in assay [1], the “ELISA Assay Ratio b1/b7” value was 2.4 and the IC50 was found to be 125 nM. The IC50 in assay [2] came to 303 nM.

`CC(C)C[C@@H]1NC(=O)[C@H](Cc2csc(-c3ccncc3)n2)NC(=O)[C@@H]2CCCN2[C@H](C(=O)NC(C)(C)C)[C@H](C)NC(=O)[C@H]([C@@H](C)O)NC(=O)[C@H](CC(=O)O)NC1=O` [Compound 97]: in assay [1], the “ELISA Assay Ratio b1/b7” value is given as 2.5 and the IC50 stood at 124 nM. For the same molecule, the IC50 in assay [2] stood at 311 nM.

Turning to `CC(C)C[C@@H]1NC(=O)CN(C)C(=O)[C@H](Cc2cccc(I)c2)NC(=O)[C@@H]2CCCN2[C@H](C(=O)NC(C)(C)C)[C@H](C)NC(=O)[C@H]([C@@H](C)O)NC(=O)[C@H](CC(=O)O)NC1=O` [Compound 106], in assay [1], the “ELISA Assay Ratio b1/b7” value is 18.7. Besides, the IC50 in assay [1] was found to be 59 nM; in assay [2], 1110 nM.

Regarding `CC(C)C[C@@H]1NC(=O)CN(C)C(=O)[C@H](Cc2ccc(I)cc2)NC(=O)[C@@H]2CCCN2[C@H](C(=O)NC(C)(C)C)[C@H](C)NC(=O)[C@H]([C@@H](C)O)NC(=O)[C@H](CC(=O)O)NC1=O` [Compound 107], the “ELISA Assay Ratio b1/b7” value in assay [1] is recorded as 16.0. In addition, the IC50 was 150 nM in assay [1] and 2390 nM in assay [2].

For `CC(C)C[C@@H]1NC(=O)[C@@H](CCCCN)NC(=O)[C@H](Cc2ccc(-c3ccccc3)cc2)NC(=O)[C@@H]2CCCN2[C@H](C(=O)NC(C)(C)C)[C@H](C)NC(=O)[C@H]([C@@H](C)O)NC(=O)[C@H](CC(=O)O)NC1=O` [Compound 110], the “ELISA Assay Ratio b1/b7” value in assay [1] is reported as 21.3. For the same molecule, the IC50 in assay [1] was 185 nM; in assay [2], 3920 nM.

Regarding `CC(C)C[C@@H]1NC(=O)CN(C)C(=O)[C@H](Cc2ccc(-c3ccccc3)cc2)NC(=O)[C@@H]2CCCN2[C@H](C(=O)NC(C)(C)C)[C@H](C)NC(=O)[C@H]([C@@H](C)O)NC(=O)[C@H](CC(=O)O)NC1=O` [Compound 116], in assay [1], the “ELISA Assay Ratio b1/b7” value is reported as 8.4 and the IC50 stood at 166 nM. Besides, the IC50 in assay [2] amounted to 1380 nM.

In the case of `CC(C)C[C@@H]1NC(=O)CN(C)C(=O)[C@H](Cc2cccc3ccccc23)NC(=O)[C@@H]2CCCN2[C@H](C(=O)NC(C)(C)C)[C@H](C)NC(=O)[C@H]([C@@H](C)O)NC(=O)[C@H](CC(=O)O)NC1=O` [Compound 117], in assay [1], the “ELISA Assay Ratio b1/b7” value worked out at 8.7 and the IC50 is 158 nM. The IC50 in assay [2] turned out to be 1380 nM.

As for `CC(C)C[C@@H]1NC(=O)[C@@H](CCCCN)NC(=O)[C@H](Cc2ccc(O)cc2)NC(=O)[C@@H]2CCCN2[C@H](C(=O)NC(C)(C)C)[C@H](C)NC(=O)[C@H]([C@@H](C)O)N(C)C(=O)[C@H](CC(=O)O)NC1=O` [Compound 121], the “ELISA Assay Ratio b1/b7” value in assay [1] is listed as 11.4. In addition, the IC50 is 192 nM in assay [1] and 2190 nM in assay [2].

On to `COc1ccc(C[C@@H]2NC(=O)[C@@H]3CCCN3[C@H](C(=O)NC(C)(C)C)[C@H](C)NC(=O)[C@H]([C@@H](C)O)NC(=O)[C@H](CC(=O)O)NC(=O)[C@H](CC(C)C)NC(=O)[C@H]3CCCN3C2=O)cc1OC` [Compound 127], for which the “ELISA Assay Ratio b1/b7” value in assay [1] is on record as 7.8. Besides, the results for the IC50 in assay [1] and in assay [2] were 25 nM and 196 nM, respectively.

`CC(C)C[C@@H]1NC(=O)[C@H]2CCCCN2C(=O)[C@H](Cc2cscn2)NC(=O)[C@@H]2CCCN2[C@H](C(=O)NC(C)(C)C)[C@H](C)NC(=O)[C@H]([C@@H](C)O)NC(=O)[C@H](CC(=O)O)NC1=O` [Compound 131]: the “ELISA Assay Ratio b1/b7” value in assay [1] is given as 3.1. Further, the values for the IC50 in assay [1] and in assay [2] were 26 nM and 80 nM, respectively.

Turning to `CC(C)C[C@@H]1NC(=O)[C@H]2CCCCN2C(=O)[C@H](Cc2ccccc2I)NC(=O)[C@@H]2CCCN2[C@H](C(=O)NC(C)(C)C)[C@H](C)NC(=O)[C@H]([C@@H](C)O)NC(=O)[C@H](CC(=O)O)NC1=O` [Compound 133], in assay [1], the “ELISA Assay Ratio b1/b7” value turned out to be 5.3 and the IC50 was 15 nM. The IC50 in assay [2] worked out at 80 nM.

Consider `COc1ccccc1-c1ccccc1C[C@@H]1NC(=O)[C@@H]2CCCN2[C@H](C(=O)NC(C)(C)C)[C@H](C)NC(=O)[C@H]([C@@H](C)O)NC(=O)[C@H](CC(=O)O)NC(=O)[C@H](CC(C)C)NC(=O)[C@H]2CCCCN2C1=O` [Compound 135], for which, in assay [1], the “ELISA Assay Ratio b1/b7” value is recorded as 4.9 and the half-maximal inhibitory concentration (IC50) stood at 24 nM. Further, in assay [2], the 50% inhibitory concentration (IC50) was determined as 119 nM.

For `COc1cccc(-c2ccccc2C[C@@H]2NC(=O)[C@@H]3CCCN3[C@H](C(=O)NC(C)(C)C)[C@H](C)NC(=O)[C@H]([C@@H](C)O)NC(=O)[C@H](CC(=O)O)NC(=O)[C@H](CC(C)C)NC(=O)[C@H]3CCCCN3C2=O)c1` [Compound 136], in assay [1], the “ELISA Assay Ratio b1/b7” value was found to be 6.6 and the IC50 stood at 32 nM. The half-inhibitory concentration (IC50) in assay [2] amounted to 209 nM.

`CC(C)C[C@@H]1NC(=O)[C@H]2CCCCN2C(=O)[C@H](Cc2ccc(-c3ccccc3)cc2)NC(=O)[C@@H]2CCCN2[C@H](C(=O)NC(C)(C)C)[C@H](C)NC(=O)[C@H]([C@@H](C)O)NC(=O)[C@H](CC(=O)O)NC1=O` [Compound 138]: in assay [1], the “ELISA Assay Ratio b1/b7” value is 5.0 and the IC50 came out at 24 nM. Further, in assay [2], the IC50 is 118 nM.

Consider `CC(C)C[C@@H]1NC(=O)[C@@H]2C[C@@H](O)CN2C(=O)[C@H](Cc2ccc(O)cc2)NC(=O)[C@@H]2CCCN2[C@H](C(=O)NC(C)(C)C)[C@H](C)NC(=O)[C@H]([C@@H](C)O)NC(=O)[C@H](CC(=O)O)NC1=O` [Compound 139], for which, in assay [1], the “ELISA Assay Ratio b1/b7” value was 0.7 and the concentration for half-maximal inhibition (IC50) turned out to be 100 nM. Besides, in assay [2], the IC50 is 73 nM.

For the molecule `CC(C)C[C@@H]1NC(=O)[C@H]2C[C@@H](O)CN2C(=O)[C@H](Cc2ccc(O)cc2)NC(=O)[C@@H]2CCCN2[C@H](C(=O)NC(C)(C)C)[C@H](C)NC(=O)[C@H]([C@@H](C)O)NC(=O)[C@H](CC(=O)O)NC1=O` [Compound 141], the “ELISA Assay Ratio b1/b7” value in assay [1] is listed as 2.0. The figures for the IC50 in assay [1] and in assay [2] were 19 nM and 36 nM, respectively.

For `CC(C)C[C@@H]1NC(=O)[C@H]2CCCCN2C(=O)[C@H](Cc2cccc3ccccc23)NC(=O)[C@@H]2CCCN2[C@H](C(=O)NC(C)(C)C)[C@H](C)NC(=O)[C@H]([C@@H](C)O)NC(=O)[C@H](CC(=O)O)NC1=O` [Compound 143], in assay [1], the “ELISA Assay Ratio b1/b7” value was found to be 2.1. The IC50 in assay [1] was found to be 33 nM; in assay [2] it was 68 nM.

`C[C@@H]1NC(=O)[C@H]([C@@H](C)O)NC(=O)[C@H](CC(=O)O)NC(=O)[C@H](CC(C)(C)C)NC(=O)[C@H]2CCCCN2C(=O)[C@H](Cc2ccc(O)cc2)NC(=O)[C@@H]2CCCN2[C@@H]1C(=O)NC(C)(C)C` [Compound 150]: in assay [1], the “ELISA Assay Ratio b1/b7” value came to 8.2 and the IC50 turned out to be 54 nM. Besides, the IC50 in assay [2] is 447 nM.
